Assay results published in patent publication US9469650B2, “Melampomagnolide B derivatives” (BOARD OF TRUSTEES OF THE UNIVERSITY OF ARKANSAS, priority 2013, dated 2016).

What was measured:
PC-3 = experiment: panel of 60 human tumor cell lines, growth inhibition (Prostate Cancer); conditions: PC-3
K-562 = experiment: panel of 60 human tumor cell lines, growth inhibition (Leukemia); conditions: K-562
UACC-257 = experiment: panel of 60 human tumor cell lines, growth inhibition (Melanoma); conditions: UACC-257
SW-620 = experiment: panel of 60 human tumor cell lines, growth inhibition (Colon Cancer); conditions: SW-620
NCI-H322M = experiment: panel of 60 human tumor cell lines, growth inhibition (Non-Small Cell Lung Cancer)
SF-295 = experiment: panel of 60 human tumor cell lines, growth inhibition (CNS Cancer); conditions: SF-295
MDA-MB-468 = experiment: panel of 60 human tumor cell lines, growth inhibition (Breast Cancer); conditions: MDA-MB-468
U251 = experiment: panel of 60 human tumor cell lines, growth inhibition (CNS Cancer); conditions: U251
HOP-92 = experiment: panel of 60 human tumor cell lines, growth inhibition (Non-Small Cell Lung Cancer); conditions: HOP-92
OVCAR-3 = experiment: panel of 60 human tumor cell lines, growth inhibition (Ovarian Cancer); conditions: OVCAR-3
HOP-62 = experiment: panel of 60 human tumor cell lines, growth inhibition (Non-Small Cell Lung Cancer); conditions: HOP-62
LOX IMVI = experiment: panel of 60 human tumor cell lines, growth inhibition (Melanoma)
HT29 = experiment: panel of 60 human tumor cell lines, growth inhibition (Colon Cancer); conditions: HT29
SF-539 = experiment: panel of 60 human tumor cell lines, growth inhibition (CNS Cancer); conditions: SF-539
SR = experiment: panel of 60 human tumor cell lines, growth inhibition (Leukemia)
CAKI-1 = experiment: panel of 60 human tumor cell lines, growth inhibition (Renal Cancer); conditions: CAKI-1
MOLT-4 = experiment: panel of 60 human tumor cell lines, growth inhibition (Leukemia); conditions: MOLT-4
COLO 205 = experiment: panel of 60 human tumor cell lines, growth inhibition (Colon Cancer); conditions: COLO 205

C=C1C(=O)O[C@H]2[C@H]1CC/C(COC(=O)N1CCC(F)(F)CC1)=C\CC[C@@]1(C)O[C@@H]21 [JVM 2-66]
GI50 (PC-3): 10800 nM | TGI (PC-3): 2.41E−5 | Percent Growth (PC-3; Log10 Concentration −4.0): −89% | Percent Growth (PC-3; Log10 Concentration −5.0): 55% | Percent Growth (PC-3; Log10 Concentration −6.0): 97% | Percent Growth (PC-3; Log10 Concentration −7.0): 99% | Percent Growth (PC-3; Log10 Concentration −8.0): 101% | GI50 (K-562): 3450 nM | TGI (K-562): 3.61E−5 | Percent Growth (K-562; Log10 Concentration −4.0): −10% | Percent Growth (K-562; Log10 Concentration −5.0): 13% | Percent Growth (K-562; Log10 Concentration −6.0): 93% | Percent Growth (K-562; Log10 Concentration −7.0): 95% | Percent Growth (K-562; Log10 Concentration −8.0): 104% | GI50 (UACC-257): 2340 nM | TGI (UACC-257): 1.02E−5 | Percent Growth (UACC-257; Log10 Concentration −4.0): −90% | Percent Growth (UACC-257; Log10 Concentration −5.0): 1% | Percent Growth (UACC-257; Log10 Concentration −6.0): 79% | Percent Growth (UACC-257; Log10 Concentration −7.0): 96% | Percent Growth (UACC-257; Log10 Concentration −8.0): 94% | GI50 (SW-620): 1460 nM | TGI (SW-620): 4.37E−6 | Percent Growth (SW-620; Log10 Concentration −4.0): −86% | Percent Growth (SW-620; Log10 Concentration −5.0): −38% | Percent Growth (SW-620; Log10 Concentration −6.0): 67% | Percent Growth (SW-620; Log10 Concentration −7.0): 97% | Percent Growth (SW-620; Log10 Concentration −8.0): 99% | GI50 (NCI-H322M): 13000 nM | TGI (NCI-H322M): 2.66E−5 | Percent Growth (NCI-H322M; Log10 Concentration −4.0): −92% | Percent Growth (NCI-H322M; Log10 Concentration −5.0): 68% | Percent Growth (NCI-H322M; Log10 Concentration −6.0): 102% | Percent Growth (NCI-H322M; Log10 Concentration −7.0): 99% | Percent Growth (NCI-H322M; Log10 Concentration −8.0): 96% | GI50 (SF-295): 12000 nM | TGI (SF-295): 2.49E−5 | Percent Growth (SF-295; Log10 Concentration −4.0): −96% | Percent Growth (SF-295; Log10 Concentration −5.0): 63% | Percent Growth (SF-295; Log10 Concentration −6.0): 91% | Percent Growth (SF-295; Log10 Concentration −7.0): 91% | Percent Growth (SF-295; Log10 Concentration −8.0): 95% | GI50 (MDA-MB-468): 578 nM | TGI (MDA-MB-468): 2.65E−6 | Percent Growth (MDA-MB-468; Log10 Concentration −4.0): −75% | Percent Growth (MDA-MB-468; Log10 Concentration −5.0): −48% | Percent Growth (MDA-MB-468; Log10 Concentration −6.0): 36% | Percent Growth (MDA-MB-468; Log10 Concentration −7.0): 96% | Percent Growth (MDA-MB-468; Log10 Concentration −8.0): 88% | TGI (U251): 2.66E−5 | Percent Growth (U251; Log10 Concentration −4.0): −99% | Percent Growth (U251; Log10 Concentration −5.0): 73% | Percent Growth (U251; Log10 Concentration −6.0): 92% | Percent Growth (U251; Log10 Concentration −7.0): 96% | Percent Growth (U251; Log10 Concentration −8.0): 96% | GI50 (HOP-92): 1450 nM | TGI (HOP-92): 3.89E−6 | Percent Growth (HOP-92; Log10 Concentration −4.0): −94% | Percent Growth (HOP-92; Log10 Concentration −5.0): −48% | Percent Growth (HOP-92; Log10 Concentration −6.0): 69% | Percent Growth (HOP-92; Log10 Concentration −7.0): 92% | Percent Growth (HOP-92; Log10 Concentration −8.0): 95% | GI50 (OVCAR-3): 1690 nM | TGI (OVCAR-3): 4.03E−6 | Percent Growth (OVCAR-3; Log10 Concentration −4.0): −99% | Percent Growth (OVCAR-3; Log10 Concentration −5.0): −52% | Percent Growth (OVCAR-3; Log10 Concentration −6.0): 80% | Percent Growth (OVCAR-3; Log10 Concentration −7.0): 95% | Percent Growth (OVCAR-3; Log10 Concentration −8.0): 101% | GI50 (HOP-62): 13600 nM | TGI (HOP-62): 2.81E−5 | Percent Growth (HOP-62; Log10 Concentration −4.0): −87% | Percent Growth (HOP-62; Log10 Concentration −5.0): 71% | Percent Growth (HOP-62; Log10 Concentration −6.0): 93% | Percent Growth (HOP-62; Log10 Concentration −7.0): 92% | Percent Growth (HOP-62; Log10 Concentration −8.0): 101% | GI50 (LOX IMVI): 2230 nM | TGI (LOX IMVI): 5.77E−6 | Percent Growth (LOX IMVI; Log10 Concentration −4.0): −89% | Percent Growth (LOX IMVI; Log10 Concentration −5.0): −29% | Percent Growth (LOX IMVI; Log10 Concentration −6.0): 92% | Percent Growth (LOX IMVI; Log10 Concentration −7.0): 93% | Percent Growth (LOX IMVI; Log10 Concentration −8.0): 96% | GI50 (HT29): 3300 nM | TGI (HT29): 1.05E−5 | Percent Growth (HT29; Log10 Concentration −4.0): −84% | Percent Growth (HT29; Log10 Concentration −5.0): 2% | Percent Growth (HT29; Log10 Concentration −6.0): 102% | Percent Growth (HT29; Log10 Concentration −7.0): 101% | Percent Growth (HT29; Log10 Concentration −8.0): 97% | GI50 (SF-539): 1980 nM | TGI (SF-539): 459E−6 | Percent Growth (SF-539; Log10 Concentration −4.0): −88% | Percent Growth (SF-539; Log10 Concentration −5.0): −46% | Percent Growth (SF-539; Log10 Concentration −6.0): 90% | Percent Growth (SF-539; Log10 Concentration −7.0): 85% | Percent Growth (SF-539; Log10 Concentration −8.0): 96% | GI50 (SR): 1380 nM | TGI (SR): 7.24E−6 | Percent Growth (SR; Log10 Concentration −4.0): −38% | Percent Growth (SR; Log10 Concentration −5.0): −10% | Percent Growth (SR; Log10 Concentration −6.0): 60% | Percent Growth (SR; Log10 Concentration −7.0): 87% | Percent Growth (SR; Log10 Concentration −8.0): 94% | GI50 (CAKI-1): 2030 nM | TGI (CAKI-1): 6.16E−6 | Percent Growth (CAKI-1; Log10 Concentration −4.0): −97% | Percent Growth (CAKI-1; Log10 Concentration −5.0): −22% | Percent Growth (CAKI-1; Log10 Concentration −6.0): 82% | Percent Growth (CAKI-1; Log10 Concentration −7.0): 91% | Percent Growth (CAKI-1; Log10 Concentration −8.0): 97% | GI50 (MOLT-4): 2050 nM | TGI (MOLT-4): 5.71E−6 | Percent Growth (MOLT-4; Log10 Concentration −4.0): −39% | Percent Growth (MOLT-4; Log10 Concentration −5.0): −27% | Percent Growth (MOLT-4; Log10 Concentration −6.0): 85% | Percent Growth (MOLT-4; Log10 Concentration −7.0): 85% | Percent Growth (MOLT-4; Log10 Concentration −8.0): 94% | GI50 (COLO 205): 2060 nM | TGI (COLO 205): 4.17E−6 | Percent Growth (COLO 205; Log10 Concentration −4.0): −93% | Percent Growth (COLO 205; Log10 Concentration −5.0): −62% | Percent Growth (COLO 205; Log10 Concentration −6.0): 101% | Percent Growth (COLO 205; Log10 Concentration −7.0): 96% | Percent Growth (COLO 205; Log10 Concentration −8.0): 102%
